{"source": "paper PMC11802874", "about": "“The hypolipidemic effect of MI-883, the combined CAR agonist/ PXR antagonist, in diet-induced hypercholesterolemia model” (Nature Communications, 2025)", "key": {"[1]": {"molecular_target": "T1, PXR LBD (Homo sapiens, UniProt O75469)", "T1 construct": "purchased ThermoFisher Scientific", "T1 sequence (O75469 146-433 limits assumed)": "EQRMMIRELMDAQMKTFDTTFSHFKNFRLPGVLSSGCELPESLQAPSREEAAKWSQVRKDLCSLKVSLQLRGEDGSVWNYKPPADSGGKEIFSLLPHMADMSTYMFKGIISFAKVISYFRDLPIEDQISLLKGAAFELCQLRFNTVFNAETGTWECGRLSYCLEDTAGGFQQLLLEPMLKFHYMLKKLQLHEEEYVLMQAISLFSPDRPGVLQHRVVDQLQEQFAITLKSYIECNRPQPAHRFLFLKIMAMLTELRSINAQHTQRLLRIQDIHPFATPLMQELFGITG", "assay": "TR-FRET PXR LBD competitive binding assay (LanthaScreen)", "conditions": "recombinant PXR LBD", "method": "The LanthaScreen TR-FRET PXR Competitive Binding Assay (ThermoFisher Scientific, USA) was performed to evaluate interaction with PXR LBD as we described. The assay measures the ability of an evaluated compound to replace the fluorescent PXR ligand from the receptor. The fluorescence was measured using a Synergy 2 Multi-Mode Microplate Reader (BioTek Winooski, VT, USA) (n = 3)."}, "[2]": {"test_system": "3D primary human hepatocyte spheroids", "assay": "ATP production and spheroid size in 3D PHH spheroids", "format": "cell-based", "method": "Briefly, PHHs were cultivated for 6 days to generate compact spheroids by spontaneous self-aggregation and then half of PHH medium was exchanged for FBS-free PHH medium. 3D PHHs were treated with MI-883 (5 μM) commenced from day 8 within a time range of 8–120 h (time points were 8, 12, 24, 48, 72, and 120 h). Conditioned FBS-free PHH medium was changed every 2–3 days of the treatment. […] Data are presented as the mean ± SD of fold change expression gained from 3D spheroids of three different donors. ATP assay has been performed as described."}, "[3]": {"molecular_target": "T2, mutant PXR LBD (S208W/S247W/C284W) (Homo sapiens, UniProt O75469, C284W/S208W/S247W)", "T2 construct": "expressed in transfected cells; host or cells: HepG2", "T2 sequence (O75469 whole entry S208W/S247W/C284W, the tested form may be a part)": "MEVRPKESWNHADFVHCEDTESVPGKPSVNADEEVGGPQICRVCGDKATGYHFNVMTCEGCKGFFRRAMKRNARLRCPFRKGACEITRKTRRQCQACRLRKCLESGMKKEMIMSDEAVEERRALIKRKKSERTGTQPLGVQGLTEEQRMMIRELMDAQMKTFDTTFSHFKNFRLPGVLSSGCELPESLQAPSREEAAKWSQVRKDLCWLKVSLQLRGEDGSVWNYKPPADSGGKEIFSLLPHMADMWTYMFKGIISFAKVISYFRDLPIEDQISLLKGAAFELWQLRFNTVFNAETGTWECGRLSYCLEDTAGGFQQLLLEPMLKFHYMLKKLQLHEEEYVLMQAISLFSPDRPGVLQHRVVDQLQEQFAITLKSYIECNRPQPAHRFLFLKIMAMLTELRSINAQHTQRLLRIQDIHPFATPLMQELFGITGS", "assay": "CYP3A4 reporter assay with LBP-obstructed mutant PXR in HepG2 cells", "format": "cell-based", "conditions": "HepG2, 24 h", "description": "The luciferase reporter plasmid was used together with the human wild-type PXR expression vector or with expression vectors with mutated PXR LBD (Fig. 1j)."}, "[4]": {"molecular_target": "T3, PXR/NCOR2 (Homo sapiens, UniProt O75469)", "T3 construct": "PXR-LBD (residues 108–434); expressed in transfected cells; host or cells: HepG2", "T3 sequence (O75469 108-434)": "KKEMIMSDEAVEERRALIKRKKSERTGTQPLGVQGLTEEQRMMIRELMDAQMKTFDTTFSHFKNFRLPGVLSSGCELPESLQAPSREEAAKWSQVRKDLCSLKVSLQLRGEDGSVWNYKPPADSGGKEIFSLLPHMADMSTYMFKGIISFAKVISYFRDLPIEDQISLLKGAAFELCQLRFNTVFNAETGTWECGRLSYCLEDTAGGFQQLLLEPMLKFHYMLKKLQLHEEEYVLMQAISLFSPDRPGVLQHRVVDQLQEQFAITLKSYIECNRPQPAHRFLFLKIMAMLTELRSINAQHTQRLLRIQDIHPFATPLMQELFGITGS", "T3 sequence (P19793 whole entry partner, the tested form may be a part)": "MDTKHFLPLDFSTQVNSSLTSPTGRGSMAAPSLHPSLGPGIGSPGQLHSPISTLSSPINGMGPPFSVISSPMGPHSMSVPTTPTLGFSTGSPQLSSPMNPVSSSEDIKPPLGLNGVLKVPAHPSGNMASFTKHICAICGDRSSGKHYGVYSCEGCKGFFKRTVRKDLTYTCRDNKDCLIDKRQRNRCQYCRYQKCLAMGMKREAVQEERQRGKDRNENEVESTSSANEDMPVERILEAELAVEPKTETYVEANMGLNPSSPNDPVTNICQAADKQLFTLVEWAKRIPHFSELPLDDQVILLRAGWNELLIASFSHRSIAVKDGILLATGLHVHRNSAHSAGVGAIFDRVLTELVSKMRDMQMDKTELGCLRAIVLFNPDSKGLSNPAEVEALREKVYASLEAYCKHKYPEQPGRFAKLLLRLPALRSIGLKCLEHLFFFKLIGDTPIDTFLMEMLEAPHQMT", "assay": "Mammalian two-hybrid PXR/corepressor NCOR2 release, HepG2", "format": "cell-based", "set-up": "key: firefly/Metridia luciferase activity ratio (normalized)", "method": "The GAL4-dependent pGL4-G5, harboring a pentamer of GAL4 binding sites in front of the E1b promoter was described before.\nTransient batch transfection of HepG2 cells was done as described above. […] All transfections included 0.01 µg pMetLuc2control per well for normalization of firefly luciferase reporter activities. After overnight incubation with the transfection mixtures, cells were treated with chemicals in a volume of 100 µl of cell culture medium. […] Firefly luciferase activity was measured in 10 µl of cell lysates, and Metridia luciferase activity was analyzed in 10 µl of medium supernatant, both as described before. Results were normalized by dividing firefly luciferase activity by Metridia luciferase activity measured from the same well. Measurements of samples were repeated several times (n ≥ 3)."}, "[5]": {"test_system": "humanized PXR-CAR-CYP3A4/3A7 mice, liver", "assay": "Liver enzymatic TG measurement (HFD study)", "format": "in vivo, mouse", "method": "The liver tissue (10 mg) was homogenized using a pre-cooled steel bead in 225 μL of methanol in TissueLyser II (30 Hz, 2 × 30 s) (Qiagen, Hilden, Germany). This was followed by the addition of 750 μL of ice-cold methyl tert-butyl ether. Samples were vortexed and incubated for 1 h on a rotating wheel. Next, 188 μL of LC/MS-grade water was added and, after vortexing, the mixture underwent a short incubation and centrifugation (14,000 × g, 4 °C, 3 min). The upper organic phase containing lipids was collected and 300 μL was transferred to a vial containing 40 μL of 10% Triton X-100 in methanol, followed by evaporation on a heating block with shaking function (300 rpm, 45 °C). LC/MS-grade water (100 μL) was added to the evaporated sample and the tube was vortexed (1000 rpm, 35 °C). The samples were measured using a TG assay (Beckman Coulter, Brea, CA, USA) and a glycerol assay (Randox laboratories, Crumlin, UK) on an AU480 biochemistry analyzer (Beckman Coulter, Brea, CA, USA). The glycerol value was subtracted from the TG value. Livers from seven (n = 7) vehicle-treated controls and ten (n = 10) MI-883-treated animals were used."}, "[6]": {"molecular_target": "T4, Human recombinant CYP3A4 (Homo sapiens, UniProt P08684)", "T4 construct": "purchased Promega; host or cells: baculovirus-infected insect cells", "T4 sequence (P08684 whole entry)": "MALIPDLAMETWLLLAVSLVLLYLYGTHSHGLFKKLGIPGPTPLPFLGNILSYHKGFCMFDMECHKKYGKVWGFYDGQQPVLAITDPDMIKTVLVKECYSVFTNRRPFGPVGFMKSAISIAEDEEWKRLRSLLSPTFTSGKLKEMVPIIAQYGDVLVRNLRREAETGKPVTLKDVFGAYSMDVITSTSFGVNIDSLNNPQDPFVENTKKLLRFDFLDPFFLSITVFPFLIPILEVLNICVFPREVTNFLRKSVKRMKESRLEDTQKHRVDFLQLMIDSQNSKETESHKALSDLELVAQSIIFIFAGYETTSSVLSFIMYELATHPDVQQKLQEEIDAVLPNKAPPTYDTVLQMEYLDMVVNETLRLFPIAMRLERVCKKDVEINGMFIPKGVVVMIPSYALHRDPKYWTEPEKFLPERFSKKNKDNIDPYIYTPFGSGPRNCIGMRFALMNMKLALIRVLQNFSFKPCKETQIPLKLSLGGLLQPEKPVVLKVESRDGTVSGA", "assay": "CYP450-Glo CYP3A4 enzymatic activity assay", "format": "biochemical", "conditions": "for Inhibition assays, CYP3A4 activity (replicates): log[Agonist]", "description": "Data are presented as means±S.D. from three independent measurements."}, "[7]": {"assay": "Chemical stability (shelf, DMSO stock) and solubility in solvents", "format": "physicochemical", "description": "1. Biological half-life was investigated. But is MI-883 stable on the shelf? […]\nOur medicinal chemistry team analyzed the MI-883 sample that had been stored on the lab bench at […]\ncompared to the freshly prepared sample (see Figure R1).\nIn addition, the compound is stable for at least two years in dimethyl sulfoxide (DMSO) as we confirm using published protocols 1,2(see data in Table R1).\nTable 1: LC/MS data for MI-883 stability in DMSO solution\nStudy protocol: Stability of MI-883 stock solution in DMSO after two years at -20°C A 10 mM solution of MI-883 was prepared in DMSO and divided into multiple aliquots in 2 mL cryovials.\nThe samples were stored at -20°C for two years in a standard laboratory freezer. Mass spectrometric analysis was conducted using LC/MS (Sciex QTRAP 7500). Stability was determined based on three independently prepared 1 µM solutions from stored stock.\nDMSO stock solution at -20°C over two years. However, for critical pharmaceutical use, additional studies at different temperatures and under varied conditions (e.g., light exposure, humidity) may be necessary to fully assess long-term stability. […]\nWe used several computational prediction tools to determine water […]\nμg/mL (0.9 μM) and 0.2 μg/mL (0.4 μM). Using QikProp tool (Schrödinger software package), the […]\nAccording to the ADMET Predictor software package […]\npredictions align with our observations and confirm the poor water solubility of MI-883, although we […]\nThe compound is well soluble in methanol and can dissolve in ethanol up to a concentration of 30 mM. […]"}, "[8]": {"molecular_target": "GRα (Homo sapiens, UniProt P04150)", "sequence (P04150 whole entry)": "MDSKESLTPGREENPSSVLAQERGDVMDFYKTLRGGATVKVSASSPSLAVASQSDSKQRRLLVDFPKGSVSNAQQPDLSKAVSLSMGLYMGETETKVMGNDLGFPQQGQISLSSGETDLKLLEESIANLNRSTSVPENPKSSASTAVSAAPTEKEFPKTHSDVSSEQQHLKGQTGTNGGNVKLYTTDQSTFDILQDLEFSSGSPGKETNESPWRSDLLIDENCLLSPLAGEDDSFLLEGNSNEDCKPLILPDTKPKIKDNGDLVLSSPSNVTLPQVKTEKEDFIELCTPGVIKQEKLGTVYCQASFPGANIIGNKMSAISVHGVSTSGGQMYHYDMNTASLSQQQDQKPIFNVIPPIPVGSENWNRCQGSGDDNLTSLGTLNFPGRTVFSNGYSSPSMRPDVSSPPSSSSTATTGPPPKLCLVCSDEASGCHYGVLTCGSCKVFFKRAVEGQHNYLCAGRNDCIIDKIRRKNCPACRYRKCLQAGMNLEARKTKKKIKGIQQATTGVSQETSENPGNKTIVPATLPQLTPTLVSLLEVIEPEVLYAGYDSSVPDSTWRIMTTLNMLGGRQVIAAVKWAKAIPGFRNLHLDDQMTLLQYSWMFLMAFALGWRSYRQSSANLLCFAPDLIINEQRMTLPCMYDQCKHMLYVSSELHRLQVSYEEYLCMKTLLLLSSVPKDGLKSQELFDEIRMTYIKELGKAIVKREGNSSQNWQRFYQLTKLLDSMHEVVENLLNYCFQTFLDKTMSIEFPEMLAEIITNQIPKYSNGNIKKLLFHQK", "assay": "Luciferase reporter gene assay GRα, HepG2", "conditions": "ligand: Dexamethasone 100 nM", "excerpt": "Gal4-LBD constructs of tested nuclear receptors have been used together with pGL4.31[luc2P/GAL4UAS/Hygro] luciferase reporter construct and pRL-TK Renilla expression vector (both from Promega, Hercules, USA) in HepG2 cells transfected with Lipofectamine 2000 or 3000 reagents. For GRα and FXR receptors, full-length expression vectors have been used with pGRE-luc or pFXRE-luc luciferase constructs. For the aryl hydrocarbon receptor (AhR), p1A1-luc construct was used with only pRL-TK vector for transfection normalization. A dual reporter assay (Promega, Hercules, USA) was used to analyze both firefly and Renilla luciferase activities.\nGal4-LBD constructs of tested nuclear receptors have been used together with pGL5-luc luciferase reporter construct and pRL-TK Renilla expression vector in HepG2 cells transfected with Lipofectamine 2000 or 3000 reagents. For GRα and FXR receptors, full-length expression vectors have been used with pGRE-luc or pFXRE-luc luciferase constructs. For the aryl hydrocarbon receptor (AhR), p1A1-luc construct was used with only pRL-TK vector for transfection normalization. […] Bars represent means±S.D. (n=3)."}}, "note": "Where “and” joins values, the source holds several entries; their conditions need not be identical. Equal values may be shown once."}
{"smiles": "NC(=O)c1cc(Cn2cc(-c3c(-c4ccc(Cl)cc4)nc4cc(F)ccn34)nn2)ccc1Cl", "note": "[MI-883, 2-chloro-5-((4-(2-(4-chlorophenyl)-7-fluoroimidazo[1,2-a]pyridin-3-yl)-1H-1,2,3-triazol-1-yl)methyl)benzamide]", "values": [{"measurement": "IC50", "setting": "[1]", "value": "100 ± 20", "unit": "nM"}, {"measurement": "spheroid size or ATP production in 3D PHHs", "setting": "[2]; 5 μM, 72 h", "value": "did not see any decrease"}, {"measurement": "Fig. 7c readout relative to control (control 100)", "setting": "[2]; 5 uM, three replicates, control = 100", "value": "92.8 and 153.7 and 124.1"}, {"measurement": "inhibition of constitutive activity of LBP-obstructed mutant PXR", "setting": "[3]", "value": "failure of MI-883 to inhibit"}, {"measurement": "PXR/NCOR2 (SMRT) two-hybrid activity, replicates", "setting": "[4]; MI-883 30 μM", "value": "0.575 and 0.629 and 0.672 and 0.562 and 0.437"}, {"measurement": "PXR/NCOR2 (SMRT) two-hybrid activity, replicates", "setting": "[4]; single agent: RIF (10 µM), MI-883 10 μM", "value": "0.59 and 0.547 and 0.723 and 0.544 and 0.703"}, {"measurement": "TG accumulation in male livers, enzymatic assay", "setting": "[5]", "value": "no significant impact"}, {"measurement": "inhibition of CYP3A4 activity", "setting": "[6]", "value": "weak inhibitor"}, {"measurement": "Inhibition assays, CYP3A4 activity (replicates)", "setting": "[6]; M 0", "value": "106 and 134"}, {"measurement": "Inhibition assays, CYP3A4 activity (replicates)", "setting": "[6]; M 0.5", "value": "69 and 79 and 81"}, {"measurement": "Inhibition assays, CYP3A4 activity (replicates)", "setting": "[6]; M 1", "value": "66 and 67 and 61"}, {"measurement": "Inhibition assays, CYP3A4 activity (replicates)", "setting": "[6]; M -0.5", "value": "128 and 118 and 132"}, {"measurement": "Inhibition assays, CYP3A4 activity (replicates)", "setting": "[6]; M -1", "value": "126 and 125 and 123"}, {"measurement": "Inhibition assays, CYP3A4 activity (replicates)", "setting": "[6]; M -2", "value": "89 and 124"}, {"measurement": "Inhibition assays, CYP3A4 activity (replicates)", "setting": "[6]; M -2.5", "value": 100}, {"measurement": "Inhibition assays, CYP3A4 activity (replicates)", "setting": "[6]; M -3", "value": 100}, {"measurement": "Inhibition assays, CYP3A4 activity (replicates)", "setting": "[6]; M -3.5", "value": 100}, {"measurement": "Inhibition assays, CYP3A4 activity (replicates)", "setting": "[6]; M -4", "value": 100}, {"measurement": "Inhibition assays, CYP3A4 activity (replicates)", "setting": "[6]; M -4.5", "value": 100}, {"measurement": "solubility in methanol", "setting": "[7]", "value": "well soluble"}, {"measurement": "LC/MS concentration of 1 µM solution from DMSO stock", "setting": "[7]; 2 year at -20°C in DMSO", "value": 1.007, "unit": "µM"}, {"measurement": "decomposition on the lab bench at room temperature", "setting": "[7]; 6 months, HPLC/MS", "value": "no significant decomposition"}, {"measurement": "water solubility", "setting": "[7]; not experimentally determined", "value": "low water solubility"}, {"measurement": "LC/MS concentration of 1 µM solution from DMSO stock", "setting": "[7]; time 0", "value": 1.012, "unit": "µM"}, {"measurement": "NRs assays: GRa (relative to ctrl, replicates)", "setting": "[8]", "value": "0.97 (2×) and 1.03"}]}
